For one data set, the target named is MDR1 (P-gp) (Homo sapiens (Human), UniProt P08183). Kind of data set: MDCK assay P-gp (MDCK-MDR1 monolayer permeability). Format: in vitro ADME. As to conditions: for Papp A→B: MDCK-MDR1, apical-to-basal, pH 7.4; for efflux ratio: MDCK-MDR1, pH 7.4, Papp (b-a) divided by Papp (a-b), read-out: efflux ratio PEBA/PEAB. As to the method:
The MDCK assays provide information on the potential of a compound to pass the blood brain barrier. Permeability measurements across polarized, confluent MDCK-MDR1 cell monolayers grown on permeable filter supports are used as an in vitro absorption model: apparent permeability coefficients (PE) of the compounds across the MDCK-MDR1 cell monolayers are measured (pH 7.4, 37° C.) in apical-to-basal (AB) and basal-to-apical (BA) transport direction. The AB permeability (PEAB) represents drug absorption from the blood into the brain and the BA permeability (PEBA) drug efflux from the brain back into the blood via both, passive permeability as well as active transport mechanisms mediated by efflux and uptake transporters that are expressed on the MDCK-MDR1 cells, predominantly by the overexpressed human MDR1. Identical or similar permeabilities in both transport directions indicate passive permeation (PEBA/PEAB≤1), vectorial permeability points to additional active transport mechanisms. Higher PEBA than PEAB (PEBA/PEAB>5) indicates the involvement of active efflux mediated by MDR1, which might compromise the goal to achieve sufficient brain exposure. Therefore, this assay provides valuable support for selection of compounds applicable for further in vivo testing. High permeability not limited by efflux at the blood brain barrier is a favourable characteristic for compounds that are to be used for drugs acting primarily in the CNS.
Apparent permeability coefficients (Papp) of the compounds across the MDCK-MDR1 monolayers (MDCKII cells transfected with human MDR1 cDNA expression plasmid) are measured in apical-to-basal (AB) and basal-to-apical (BA) direction.
MDCK-MDR1 cells (6×10^5 cells/cm^2) are seeded on filter inserts (Corning, Transwell, polycarbonate, 0.4 μm pore size) and cultured for 9 to 10 days. Compounds dissolved in DMSO stock solution (1-20 mM) are diluted with HTP-4 aqueous buffer (128.13 mM NaCl, 5.36 mM KCl, 1 mM MgSO4, 1.8 mM CaCl2, 4.17 mM NaHCO3, 1.19 mM Na2HPO4, 0.41 mM NaH2PO4, 15 mM HEPES, 20 mM glucose, pH 7.4) supplemented with 0.25% BSA to prepare the transport solutions (final concentration: 1 or 10 μM, final DMSO <=0.5%). The transport solution is applied to the apical or basolateral donor side for measuring A-B or B-A permeability, respectively. The receiver side contains HTP-4 buffer supplemented with 0.25% BSA. Samples are collected at the start and end of experiment from the donor and at various time intervals for up to 2 hours also from the receiver side for concentration measurement by HPLC-MS/MS (RapidFire High-throughput MS System (Agilent) coupled to QTrap 6500 (AB Sciex) or TSQ Vantage (Thermo Scientific)). Sampled receiver volumes are replaced with fresh receiver solution. Efflux ratio is calculated dividing the Papp (b-a) values by the Papp (a-b) values.

The next data set concerns the target NMDA NR1/NR2B receptor (Homo sapiens (Human), UniProt Q13224). In words: NMDA NR1/NR2B FLIPR calcium assay in HEK293 cells. It counts as cell-based. The following applies: glycine/glutamate-induced calcium, read-out: IC50, in vitro NR2B affinity in the FLIPR assay. As to the method:
A human HEK293 cell line with tetracyclin-inducible expression of NMDA NR1/NR2B receptor was used as a test system for compound efficacy and potency. The cell line was purchased from ChanTest, Catalog #CT6121. Compound activity was determined by measuring the effect of compounds on intracellular calcium concentration induced by glycine/glutamate agonism in a FLIPRtetra system (Molecular Devices).
The cells were obtained as frozen cells in cryo-vials and stored until use at −150° C. Cells were grown in culture medium (DMEM/F12, 10% FBS, 5 μg/mL Blasticidin, 150 μg/mL Zeozin, 500 μg/mL Geneticin). […] For sub-culturing the cells were detached from flasks by Versene. For the assay, cells were detached, washed twice with induction medium (DMEM/F12 without glutamine, 10% FBS, 2 μg/mL Tetracycline, 2 mM Ketamine) and seeded to 384 well pure coat amine plates (Becton Dickinson, 50000 cells per well in 50 μl) 48 h prior to assay in induction medium.
The test compounds were dissolved in 100% DMSO at a concentration of 10 mM and in a first step diluted in DMSO to a concentration of 5 mM, followed by serial dilution steps in 100% DMSO. Dilution factor and number of dilution steps may vary according to needs. Typically 8 different concentrations by 1:5 dilutions were prepared in duplicate, further intermediate dilutions (1:37.5) of the substances were carried out with aqueous assay buffer (137 mM NaCl, 4 mM KCl, 1.8 mM CaCl2), 10 mM HEPES, 10 mM Glucose, pH 7.4) resulting in a compound concentration 3 times above the final test concentration and DMSO at 2.7% resulting in 0.9% final DMSO concentration in the assay.
At the assay day cells were washed 3× with assay buffer (as described above), 10 μL buffer remained in the wells after washing. 10 μL Ca kit loading buffer (AAT Bioquest; prepared from the kit containing the following components: Component A: Fluo-8 NW dissolved in 200 μL DMSO and 20 μl of this solution are mixed with 10 ml buffer prepared out of component B and C, Component B: 10× Pluronic® F127 Plus diluted 1:10 in component C, Component C: HHBS (Hanks with 20 mM Hepes) was added to the cells and the plates were incubated with lid for 60 minutes at room temperature. 20 μl assay buffer containing 60 μM glycine (20 μM final) and 3 μM glutamate (1 μM final) was added to column 1-23, column 24 got assay buffer without glycine/glutamate to serve as negative unstimulated control. Fluorescence (indicating the calcium influx as a result of the NR1/NR2B ion channel activation) was read on the FLIPRtetra device for 60 seconds to monitor the glutamate induced effects. After 2 minutes 20 μL of compound dilution prepared as described above or controls (row 1-22) in assay buffer were carefully added to the wells. […] The average of 2 measurements at 5 minutes and 5 min 10 seconds after compound addition is calculated and further used for IC50 calculations. Each assay microtiter compound dilution plate contained wells (in column 23 or 24) with DMSO controls instead of compound as controls for glycine/glutamate induced fluorescence (high controls) and wells with 1 μM of a reference NR2B NAM as low controls (Compound 22; reference: Layton, Mark E et al, ACS Chemical Neuroscience 2011, 2(7), 352-362).
The output file of the reader contains the well number and measured average fluorescence units. For data evaluation and calculation, the measurement of the low control was set as 0% control and the measurement of the high control was set as 100% control. The IC50 values were calculated using the standard 4 parameter logistic regression formula. Calculation: [y=(a−d)/(1+(x/c)^b)+d], a=low value, d=high value; x=conc M; c=IC50 M; b=slope.

NMDA NR1/NR2B receptor, sequence (Q13224 27-1484, other chains not shown): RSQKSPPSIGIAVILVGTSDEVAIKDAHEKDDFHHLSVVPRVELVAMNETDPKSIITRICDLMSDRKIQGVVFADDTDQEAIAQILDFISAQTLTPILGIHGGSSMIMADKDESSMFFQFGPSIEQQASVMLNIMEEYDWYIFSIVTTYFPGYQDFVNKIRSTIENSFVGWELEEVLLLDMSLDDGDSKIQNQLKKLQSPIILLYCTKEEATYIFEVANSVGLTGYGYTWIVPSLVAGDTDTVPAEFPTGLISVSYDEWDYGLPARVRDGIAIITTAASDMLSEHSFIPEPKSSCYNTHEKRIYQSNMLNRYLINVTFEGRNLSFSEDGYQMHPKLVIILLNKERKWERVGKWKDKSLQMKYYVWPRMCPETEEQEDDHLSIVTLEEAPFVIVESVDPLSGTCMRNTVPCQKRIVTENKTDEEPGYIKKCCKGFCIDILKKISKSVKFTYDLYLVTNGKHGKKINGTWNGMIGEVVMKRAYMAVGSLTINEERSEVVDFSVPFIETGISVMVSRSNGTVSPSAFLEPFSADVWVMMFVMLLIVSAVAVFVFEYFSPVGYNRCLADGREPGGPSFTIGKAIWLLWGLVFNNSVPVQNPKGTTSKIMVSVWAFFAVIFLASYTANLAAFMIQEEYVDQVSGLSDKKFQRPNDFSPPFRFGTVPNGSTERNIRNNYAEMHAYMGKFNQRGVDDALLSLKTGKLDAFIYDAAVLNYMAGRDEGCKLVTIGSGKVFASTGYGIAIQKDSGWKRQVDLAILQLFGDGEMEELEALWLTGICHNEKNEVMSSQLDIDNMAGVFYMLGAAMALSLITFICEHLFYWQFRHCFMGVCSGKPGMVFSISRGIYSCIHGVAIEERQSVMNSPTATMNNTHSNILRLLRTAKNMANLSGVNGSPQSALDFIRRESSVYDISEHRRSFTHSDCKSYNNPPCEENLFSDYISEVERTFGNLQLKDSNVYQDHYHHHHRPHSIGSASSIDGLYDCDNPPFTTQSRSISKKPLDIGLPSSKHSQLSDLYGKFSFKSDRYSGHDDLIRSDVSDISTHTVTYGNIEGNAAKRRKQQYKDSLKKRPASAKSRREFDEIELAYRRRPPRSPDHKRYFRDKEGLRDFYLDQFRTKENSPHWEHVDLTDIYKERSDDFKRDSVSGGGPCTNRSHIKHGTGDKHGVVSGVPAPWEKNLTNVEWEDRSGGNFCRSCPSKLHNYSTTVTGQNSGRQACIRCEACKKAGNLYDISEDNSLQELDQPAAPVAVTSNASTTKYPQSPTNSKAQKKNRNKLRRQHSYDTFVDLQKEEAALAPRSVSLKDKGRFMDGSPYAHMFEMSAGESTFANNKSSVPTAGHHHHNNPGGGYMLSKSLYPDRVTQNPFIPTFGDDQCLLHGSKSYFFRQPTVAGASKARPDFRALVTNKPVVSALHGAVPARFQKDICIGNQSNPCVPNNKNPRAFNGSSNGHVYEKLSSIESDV

For the compound `CNC(=O)[C@@H]1CN(Cc2cnc(Oc3ccc(C)cc3F)nc2)CCO1` [Example 20], at MDR1 (P-gp), the Papp A→B was 80 ×10⁻⁶ cm/s and the efflux ratio came out at 0.7. Moreover, at NMDA NR1/NR2B receptor, the half-maximal inhibitory concentration (IC50) turned out to be 133 nM.
In the case of `CNC(=O)[C@@H]1CN(Cc2cnc(Oc3ccccc3Cl)nc2)CCO1` [Example 26], on MDR1 (P-gp), the Papp A→B is 95 ×10⁻⁶ cm/s and the efflux ratio came out at 0.6. The IC50 on NMDA NR1/NR2B receptor was 550 nM.
Consider `CNC(=O)[C@@H]1CN(Cc2cnc(Oc3ccc(F)cc3F)nc2)CCO1` [Example 23], for which, at MDR1 (P-gp), the Papp A→B turned out to be 65 ×10⁻⁶ cm/s and the efflux ratio came to 0.9. The concentration for half-maximal inhibition (IC50) on NMDA NR1/NR2B receptor worked out at 143 nM.
Regarding `CNC(=O)[C@@H]1CN(Cc2cnc(Oc3ccc(Cl)cc3)nc2)CCO1` [Example 25], on MDR1 (P-gp), the Papp A→B came out at 88 ×10⁻⁶ cm/s and the efflux ratio is 0.5. In addition, the IC50 at NMDA NR1/NR2B receptor was found to be 216 nM.
On to `CNC(=O)[C@@H]1CN(Cc2cnc(Oc3ccc(C)cc3C)nc2)CCO1` [Example 22], for which, on MDR1 (P-gp), the Papp A→B was determined as 57 ×10⁻⁶ cm/s and the efflux ratio turned out to be 0.7. In addition, at NMDA NR1/NR2B receptor, the IC50 worked out at 1110 nM.
In the same order, the values of `CNC(=O)[C@@H]1CN(Cc2cnc(Oc3ccc(C)cc3)nc2)CCO1` [Example 28] are 83 ×10⁻⁶ cm/s, 0.5 and 500 nM.
Take `CNC(=O)[C@@H]1CN(Cc2cnc(Oc3ccc(F)cc3)nc2)CCO1` [Example 32]: on MDR1 (P-gp), the Papp A→B came to 82 ×10⁻⁶ cm/s and the efflux ratio was found to be 0.5. Further, on NMDA NR1/NR2B receptor, the half-inhibitory concentration (IC50) stood at 547 nM.
Turning to `CNC(=O)[C@@H]1CN(Cc2cnc(Oc3ccc(Cl)cc3F)nc2)CCO1` [Example 24], on MDR1 (P-gp), the Papp A→B is 56 ×10⁻⁶ cm/s and the efflux ratio is 0.8. Further, at NMDA NR1/NR2B receptor, the IC50 stood at 98 nM.
As to `CNC(=O)[C@@H]1CN(Cc2cnc(Oc3ccccc3F)nc2)CCO1` [Example 27], at MDR1 (P-gp), the Papp A→B amounted to 54 ×10⁻⁶ cm/s and the efflux ratio came out at 0.7. At NMDA NR1/NR2B receptor, the half-maximal inhibitory concentration (IC50) was found to be 350 nM.
Take `CNC(=O)[C@@H]1CN(Cc2cnc(Oc3ccc(F)cc3C)nc2)CCO1` [Example 21]: at MDR1 (P-gp), the Papp A→B is 56 ×10⁻⁶ cm/s and the efflux ratio was 1. The IC50 at NMDA NR1/NR2B receptor was 702 nM.

Broadly, the Papp A→B is how fast a substance crosses the layer from the apical side. A lower Papp A→B goes with slow passage. The IC50 is the concentration that inhibits the measured activity by half.

Values taken from patent US11104670B2, “4-pyrimidin-5-ylmethyl-morpholine derivatives and the use thereof as medicament” (Boehringer Ingelheim International GmbH, priority 2018, dated 2021).
